Test results reported in patent US10344330B2, “Glatiramer acetate response biomarker mRNA potency assay” (Mylan Inc., priority 2013, dated 2019).

Tests used:
[1] = system: mouse IL-13 mRNA in primary LN cells; assay: Validation: mouse IL-13 mRNA by real-time PCR in LN cells of GA-immunized SJL/J mice (Example IV); format: cell-based; settings: for IL-13 mRNA Fold Change: normalized to GAPDH; for induction of IL-13 mRNA: 20 μg/mL, 6 hours
Method: Three experiments were conducted using one batch of GA (Mylan GMA). The primary LN cells were stimulated by incubation with 6 concentrations (0.3 to 20 μg/mL) of the GA for 6 hours at 37° C. Total RNA was isolated from LN cells stimulated with GA or controls. cDNA was synthesized from the RNA and the mRNA levels of seven mouse cytokines, IL-2, IL-4, IL-5, IL-10, IL-13, interferon (IFN)-γ and tumor necrosis factor (TNF)-α, were quantitatively measured by a real-time PCR method.
Female SJL/J mice at 8-9 weeks of age were immunized by injection into four footpads using a 1 mL syringe with a 27-G, ½-inch needle. Each mouse received a total injection volume of 0.1 mL of GMA emulsified in CFA (about 10 μL into each of the front footpads and 40 μL into each of the hind footpads). Animals were immunized on Day 0. After injection, animals were placed back in their cages and housed ≤6 animals per cage.
Immunized animals were sacrificed by cervical dislocation on Day 10 following immunization. […] After centrifugation at about 200×g for 10 minutes at 4° C., the cell pellet was re-suspended in 40 mL of DCCM-1 medium for cell counting. A Trypan blue exclusion method was used to determine the cell density of viable cells in the suspension. After cell counting, the LN cells were suspended in enriched DCCM-1 medium at density of 7.5×10^6 cells/mL. LN cells (0.12 mL) were plated into each well of 96-well tissue culture plates.
Dilutions of GA (Mylan GMA) were prepared using enriched DCCM-1 medium as the diluent. GA dilutions (0.12 mL) were added in the assigned wells of 96-well tissue culture plates. The same volume of LN cells (0.12 mL) isolated from immunized animals was added to the assigned wells. A positive control and a negative control were always performed in the same assay by treating LN cells with 2.5 μg/mL ConA and 10 μg/mL MBP, respectively. The LN cells with mock stimulation protocols (enriched DCCM-1 medium) were used to monitor the background mRNA level of a cytokine. The plates were incubated at 37° C. in a humidified 5% CO2 incubator for 6 hr.
At the end of incubation time, culture medium from stimulated cells was removed by aspiration and the cells were lysed using Qiagen or Promega lysis buffer. The lysate was transferred to an RNeasy Mini column (Qiagen) or wells of the SV 96 Binding Plate (Promega) for RNA isolation and cDNA synthesis. All tested samples were run in triplicate.
The SV 96 Total RNA Isolation System (Promega; Cat. No. Z3505) was used for total RNA isolation. Assay procedures were carried out according to each manufacturer's protocol. RNA samples were stored at −70° C. until use. […] The assay procedure was carried out according to the manufacturer's protocol.
The plate was centrifuged at 2000 rpm for 2 minutes at 4° C. to spin down the contents and eliminate air bubbles. Samples were prepared and run in a 96-well plate using a Life Technologies Real-Time PCR system (previously Applied Biosystems; Model No. 7500) according to the manufacturer's recommendation. The mix for the reference gene was prepared in the same way using the reference gene primer.
A relative quantitation method was used to analyze changes in mIL-2, mIL-4, mIL-5, mIL-10, mIL-13, mIFN-γ and TNF-α expression in GA treated samples relative to the untreated control (Enriched DCCM-1 treated) samples using the following program:
Levels of mouse cytokine amplicons were normalized to an internal probe level (GAPDH) from the same samples. The following equations were used to calculate the relative increase in response to GA stimulation compared to the control sample (Enriched DCCM1 sample): […]

[2] = system: TNF-α secreted by LN cells; assay: TNF-α secretion by GA-stimulated LN cells, MSD 9-plex ELISA (Example II); format: cell-based, mouse; settings: for TNF-α secretion response ratio (treated cell medium to control DCCM1 medium): 21 hr
Method: (§1) Animals at 8 weeks of age were immunized by injection into four footpads using a 1 mL syringe with a 27-G, 1⁄2-inch needle. […] Ten days post-immunization, immunized animals were sacrificed via cervical dislocation. […] The LN cells were isolated by pressing the LN with the plunger end of a sterile syringe. […] Trypan blue exclusion method was used to determine the cell density of viable cells in the suspension. […] Cat. […] LN cells were plated into a 24-well tissue culture plate for drug stimulation. […] Cell debris was removed by centrifugation at ca. 200×g for 10 minutes at 4° C. Cytokines secreted by treated cells were determined on the day of collection by ELISA using mouse TH 1/TH 2 9-Plex Tissue Culture Kit (Meso Scale Discovery; Cat No. […]-2, Lot #: K0032839) which detects Th1 cytokines (IFN-γ, IL-2, IL-12, IL-1β, TNF-α, CXCL1) and Th2 cytokines (IL-4, IL-5 and IL-10). For IFN-γ, culture media also were assayed at 45 hours using mouse IFN-γ Tissue Culture Kit (Meso Scale Discovery; Cat No. […] For the positive control, 0.5 mL of LN cells (5×10^6 cells/well) were treated with 0.5 mL of ConA (5 μg/mL). For the negative control, 0.5 mL of LN cells (5×10^6 cells/well) were treated with 0.5 mL of MBP (20 μg/mL). The LN cells with mock stimulation (enriched DCCM1 medium) were used to monitor the background level of a cytokine. For the cytokine assays, calibration standards or samples were incubated in the MULTI-SPOT or the SINGLE-SPOT plate and each cytokine bound to its corresponding capture antibody. All test samples were run in duplicate. The amount of each cytokine on its distinct spot was quantified using a cytokine-specific detection antibody labeled with MSD SULFO-TAGTM reagent. Electrochemiluminescent signals from immobilized SULFO-TAGTM-labeled complexes on each spot from each well were captured by the MSD SECTOR Imager 6000, which produces a signal directly proportional to the amount of captured cytokine in a test sample. The levels of cytokines in test samples were derived by interpolation from calibration curves with calibration standards of known concentrations using reagents provided with the MSD kits. Kits were used according to the manufacturer's protocols. […] Data are expressed as a response ratio of cytokine concentration in treated cell medium to control DCCM1 medium.

[3] = system: KC (CXCL1) secreted by LN cells; assay: KC (CXCL1) secretion by GA-stimulated LN cells, MSD 9-plex ELISA (Example II); format: cell-based, mouse; settings: for KC secretion response ratio (treated cell medium to control DCCM1 medium): 21 hr
[4] = system: IL-4 secreted by LN cells; assay: IL-4 secretion by GA-stimulated LN cells, MSD 9-plex ELISA (Example II); format: cell-based, mouse; settings: for IL-4 secretion response ratio (treated cell medium to control DCCM1 medium): 21 hr
Method: as §1

[5] = BALB/cByJ, immunized GA Intraplantar
[6] = BALB/cByJ, immunized GA Lower Limb
[7] = BALB/cByJ, immunized Mannitol Intraplantar
[8] = C57BL10J, immunized GA Intraplantar
[9] = C57BL10J, immunized GA Lower Limb
[10] = C57BL10J, immunized Mannitol Intraplantar
[11] = CD-1, immunized GA Intraplantar
[12] = CD-1, immunized Mannitol Intraplantar
[13] = cells from any of the three mouse strains

Molecule | TNF-α secretion response ratio (treated cell medium to control DCCM1 medium) [2, 5] | TNF-α secretion response ratio (treated cell medium to control DCCM1 medium) [2, 6] | TNF-α secretion response ratio (treated cell medium to control DCCM1 medium) [2, 7] | TNF-α secretion response ratio (treated cell medium to control DCCM1 medium) [2, 8] | TNF-α secretion response ratio (treated cell medium to control DCCM1 medium) [2, 9] | TNF-α secretion response ratio (treated cell medium to control DCCM1 medium) [2, 10] | TNF-α secretion response ratio (treated cell medium to control DCCM1 medium) [2, 11] | TNF-α secretion response ratio (treated cell medium to control DCCM1 medium) ([2]; CD-1, immunized GA Lower Limb) | TNF-α secretion response ratio (treated cell medium to control DCCM1 medium) [2, 12] | KC secretion response ratio (treated cell medium to control DCCM1 medium) [3, 6] | KC secretion response ratio (treated cell medium to control DCCM1 medium) [3, 8] | KC secretion response ratio (treated cell medium to control DCCM1 medium) [3, 9] | KC secretion response ratio (treated cell medium to control DCCM1 medium) ([3]; CD-1, immunized GA Lower Limb) | IL-4 secretion response ratio (treated cell medium to control DCCM1 medium) [4, 5] | IL-4 secretion response ratio (treated cell medium to control DCCM1 medium) [4, 6] | IL-4 secretion response ratio (treated cell medium to control DCCM1 medium) [4, 7] | IL-4 secretion response ratio (treated cell medium to control DCCM1 medium) [4, 8] | IL-4 secretion response ratio (treated cell medium to control DCCM1 medium) [4, 9] | IL-4 secretion response ratio (treated cell medium to control DCCM1 medium) [4, 10] | IL-4 secretion response ratio (treated cell medium to control DCCM1 medium) [4, 11] | also measured
Concanavalin A [ConA, reference compound] | 27.69 | 10.87 | 11.61 | 2.53 | 2.02 | 2.10 | 17.59 | 9.79 | 23.88 | 0.90 | 1.55 | 1.28 | 1.65 | 46.47 | 75.33 | 24.71 | 3.26 | 4.85 | 3.14 | 9.86 | IL-13 mRNA Fold Change ([1]; Experiment 1, 2.5 μg/mL): 40.9 fold; IL-13 mRNA Fold Change ([1]; Experiment 2, 2.5 μg/mL): 32.4 fold; IL-13 mRNA Fold Change ([1]; Experiment 3, 2.5 μg/mL): 50.9 fold; IL-4 secretion response ratio (treated cell medium to control DCCM1 medium) ([4]; CD-1, immunized GA Lower Limb): 4.91; IL-4 secretion response ratio (treated cell medium to control DCCM1 medium) [4, 12]: 3.36
L-glutamic acid polymer with L-alanine, L-lysine and L-tyrosine, acetate (salt) [GA] |  |  |  |  |  |  |  |  |  |  |  |  |  |  |  |  |  |  |  |  | induction of IL-13 mRNA ([1]; SJL/J, Exp 1): 17.6 fold; induction of IL-13 mRNA ([1]; SJL/J, Exp 2): 21.3 fold; induction of IL-13 mRNA ([1]; SJL/J, Exp 3): 33.9 fold; induction of IL-13 mRNA (in words) ([1]; SJL/J, different concentrations of GA vs unstimulated LN cells): robust induction; TNF-α secretion, dose response to GA (in words) [2, 13]: No dose response; KC secretion, dose response to GA (in words) [3, 13]: No dose response; IL-4 secretion, dose response to GA (in words) ([4]; BALB/cByJ cells): dose-dependent manner
MBP: myelin basic protein, a negative control (protein, UniProt P02686 1-304, looked up) Myelin basic protein: MGNHAGKRELNAEKASTNSETNRGESEKKRNLGELSRTTSEDNEVFGEADANQNNGTSSQDTAVTDSKRTADPKNAWQDAHPADPGSRPHLIRLFSRDAPGREDNTFKDRPSESDELQTIQEDSAATSESLDVMASQKRPSQRHGSKYLATASTMDHARHGFLPRHRDTGILDSIGRFFGGDRGAPKRGSGKDSHHPARTAHYGSLPQKSHGRTQDENPVVHFFKNIVTPRTPPPSQGKGRGLSLSRFSWGAEGQRPGFGYGGRASDYKSAHKGFKGVDAQGTLSKIFKLGGRDSRSGSPMARR | 0.98 | 1.07 | 1.10 | 1.03 | 1.04 | 1.01 | 1.34 | 1.54 | 1.51 | 1.02 | 1.00 | 1.04 | 1.08 | 0.99 | 1.05 | 1.50 | 1.09 | 1.14 | 1.03 | 0.99 | IL-13 mRNA Fold Change ([1]; Experiment 1, 10 μg/mL): 0.9 fold; IL-13 mRNA Fold Change ([1]; Experiment 2, 10 μg/mL): 1.4 fold; IL-13 mRNA Fold Change ([1]; Experiment 3, 10 μg/mL): 1.2 fold; IL-13 mRNA expression level in response to MBP treatment ([1]; SJL/J, MBP 10 μg/mL, all PCR runs): ≤ 2 fold; IL-4 secretion response ratio (treated cell medium to control DCCM1 medium) ([4]; CD-1, immunized GA Lower Limb): 0.94; IL-4 secretion response ratio (treated cell medium to control DCCM1 medium) [4, 12]: 1.21
